Measured values: patent US6841519B1, “Isoxazoline derivatives and herbicides containing the same as the active ingredient” (Kumiai Chemical Industry Co., Ltd., priority 1999, dated 2005)

Assays:
Assay type in all cases: in vivo
[1] = test system: Echinochloa crus-galli (L.) Beauv. var. crusgall (Ec); experiment: Test for herbicidal effect by upland field soil treatment (Test Example 2), Ec
Experimental: (§1) [table] <Test Example 2> Test For Herbicidal Effect By Upland Field Soil Treatment An upland field soil was filed in a plastic pot of 80 cm^2. Seeds of Echinochloa crus-galli (L.) Beauv. var. crusgall (Ec) and Setaria viridis (L.) Beauv. (Se) were sowed, followed by covering with the same soil. Wettable powders produced in accordance with the Formulation 1 were diluted with water and sprayed uniformly: on the soil surface using a small sprayer, in an amount of 100 liters per 10 ares so that the amount of each active ingredient became 100 g per 10 ares. Then, breeding was made in a greenhouse, and the herbicidal effect of each wettable powder was examined at the 21st day from the treatment in accordance with the standard shown in Table 40.

[2] = test system: Setaria viridis (L.) Beauv. (Se); experiment: Test for herbicidal effect by upland field soil treatment (Test Example 2), Se
Experimental: as §1

[3] = test system: Echinochloa oryzicola Vasing. (Eo); experiment: Test for herbicidal effect by paddy field soil treatment (Test Example 1); conditions: application amount (active ingredient) 100 g/10 a, examined at the 21st day from the treatment, index per Table 40
Experimental: <Test Example 1> Test For Herbicidal Effect By Paddy Field Soil Treatment A paddy field soil was filled in a plastic pot of 100 cm^2 and subjected to puddling. Then, seeds of Echinochloa oryzicola Vasing. (Eo) were sowed and water was filled in a depth of 3 cm. Next day, wettable powders produced in accordance with the Formulation 1 were diluted with water and dropped on the water surface. The application amount of each wettable powder was 100 g per 10 ares in terms of the active ingredient. Then, breeding was made in a greenhouse, and the herbicidal effect of each wettable powder was examined at the 21st day from the treatment in accordance with the standard shown in Table 40. [table]

[4] = application amount (active ingredient) 100 g/10 a, examined at the 21st day from the treatment, index per Table 40
[5] = 100 g/10 a active ingredient, examined at 21st day

Row | Compound | Herbicidal effect to Ec [1, 4] | Herbicidal effect to Se [2, 4] | Herbicidal effect to Eo [3] | Herbicidal effect to Ec [1, 5] | Herbicidal effect to Se [2, 5]
1 | CCC1(C)CC(S(=O)(=O)Cc2ccccc2F)=NO1 (centres unmarked) [Compound 1-189] | 5 (A herbicidal effect or phytotoxicity of 90% or more) | 5 (A herbicidal effect or phytotoxicity of 90% or more) | 5 (A herbicidal effect or phytotoxicity of 90% or more) | – | –
2 | CC12CCCCC1C(S(=O)(=O)Cc1c(F)cccc1F)=NO2 (centres unmarked) [Compound 1-493] | 5 (A herbicidal effect or phytotoxicity of 90% or more) | 4 (A herbicidal effect or phytotoxicity of 70% to less than 90%) | 5 (A herbicidal effect or phytotoxicity of 90% or more) | – | –
3 | CCC1(C)CC(S(=O)(=O)Cc2c(C)ccc(C)c2C)=NO1 (centres unmarked) [Compound 1-617] | – | – | 5 (A herbicidal effect or phytotoxicity of 90% or more) | 5 (A herbicidal effect or phytotoxicity of 90% or more) | 5 (A herbicidal effect or phytotoxicity of 90% or more)
4 | COc1ccc(CS(=O)(=O)C2=NOC(C)(C)C2)cc1 [Compound 1-42] | 5 (A herbicidal effect or phytotoxicity of 90% or more) | 4 (A herbicidal effect or phytotoxicity of 70% to less than 90%) | 5 (A herbicidal effect or phytotoxicity of 90% or more) | – | –
5 | CCC1(C)CC(S(=O)(=O)Cc2ccc(Cl)cc2)=NO1 (centres unmarked) [Compound 1-194] | 5 (A herbicidal effect or phytotoxicity of 90% or more) | 5 (A herbicidal effect or phytotoxicity of 90% or more) | 5 (A herbicidal effect or phytotoxicity of 90% or more) | – | –
6 | CCC1(C)CC(S(=O)(=O)Cc2ccc(F)cc2)=NO1 (centres unmarked) [Compound 1-191] | 5 (A herbicidal effect or phytotoxicity of 90% or more) | 5 (A herbicidal effect or phytotoxicity of 90% or more) | 5 (A herbicidal effect or phytotoxicity of 90% or more) | – | –
7 | CC(c1ccccc1C(F)(F)F)S(=O)(=O)C1=NOC(C)(C)C1 (centres unmarked) [Compound 1-575] | – | – | 5 (A herbicidal effect or phytotoxicity of 90% or more) | – | –
8 | C#CCOC(=O)c1ccccc1CS(=O)(=O)C1=NOC(C)(C)C1 [Compound 1-600] | – | – | 5 (A herbicidal effect or phytotoxicity of 90% or more) | 5 (A herbicidal effect or phytotoxicity of 90% or more) | –
9 | COCC1(C)CC([S+]([O-])Cc2c(F)cccc2F)=NO1 (centres unmarked) [Compound 1-396] | 4 (A herbicidal effect or phytotoxicity of 70% to less than 90%) | 5 (A herbicidal effect or phytotoxicity of 90% or more) | 5 (A herbicidal effect or phytotoxicity of 90% or more) | – | –
10 | O=S(=O)(Cc1c(F)cccc1F)C1=NOC2CCCCC12 (centres unmarked) [Compound 1-387] | 5 (A herbicidal effect or phytotoxicity of 90% or more) | 4 (A herbicidal effect or phytotoxicity of 70% to less than 90%) | 5 (A herbicidal effect or phytotoxicity of 90% or more) | – | –
11 | CC1(C)CC(S(=O)(=O)Cc2cc([N+](=O)[O-])cc([N+](=O)[O-])c2)=NO1 [Compound 1-546] | – | – | 5 (A herbicidal effect or phytotoxicity of 90% or more) | 5 (A herbicidal effect or phytotoxicity of 90% or more) | 4 (A herbicidal effect or phytotoxicity of 70% to less than 90%)
12 | CCC1(C)CC(S(=O)(=O)Cc2ccccc2Br)=NO1 (centres unmarked) [Compound 1-195] | 5 (A herbicidal effect or phytotoxicity of 90% or more) | 5 (A herbicidal effect or phytotoxicity of 90% or more) | 5 (A herbicidal effect or phytotoxicity of 90% or more) | – | –
13 | O=S(=O)(Cc1c(F)cccc1F)C1=NOCC1 [Compound 1-533] | – | – | 5 (A herbicidal effect or phytotoxicity of 90% or more) | – | –
14 | CS(=O)(=O)C1=NOC2(CC2)C1 [Compound 2-28] | – | – | 5 (A herbicidal effect or phytotoxicity of 90% or more) | – | –
